Earlier results in patent US5674533A, “Pharmaceutical composition for the controlled release of moguisteine in a liquid suspension” (Recordati, S.A., Chemical And Pharmaceutical Company, priority 1994, dated 1997).

Experiments:
[1] = in humans
[2] = for antitussive activity of enantiomers: R(+) vs S(-)
[3] = tested on: rapidly adapting irritant receptors (RARs); conditions: peripheral site of action
[4] = in vivo
[5] = not given; remark: listed apart in the source

COc1ccccc1OCC1SCCN1C(=O)CC(=O)O (racemic) [active metabolite, (R,S)-2-[(methoxyphenoxy)methyl]-3-carboxyacetyl]-1,3 thiazolidine acid]
presence in biological fluids in measurable quantities (after oral or intravenous administration of moguisteine): only its active metabolite
rate of absorption relative to moguisteine (oral): five times slower than moguisteine

CCOC(=O)CC(=O)N1CCSC1COc1ccccc1OC (racemic) [moguisteine, (R,S)-2-[(2-methoxyphenoxy)methyl-3-ethoxycarbonyl-1-acetyl]-1,3-thiazolidine]
half-life after administration [1]: less than one hour
antitussive potency relative to codeine, dextromethorphan and zipripol ([2]; in vivo): as potent as codeine, dextromethorphan and zipripol
antitussive potency relative to (D,L)-dropropizine ([2]; vs (D,L)-dropropizine): 3-4 times more potent
action via opioid receptors (opioid receptors): does not act via opioid receptors
interaction with RARs [3]: interacts with the so-called "rapidly adapting irritant receptors" (RARs)
addiction [4]: causes no addiction
tolerability in high doses relative to codeine or dextromethorphan [4]: better tolerated in high doses than codeine or dextromethorphan
solubility in aqueous fluids [5]: relatively insoluble in aqueous fluids

CCOC(=O)CC(=O)N1CCSC1COc1ccccc1OC (single isomer, unassigned) [R(+) enantiomer]
antitussive activity of enantiomers [2]: equivalent antitussive activity

CCOC(=O)CC(=O)N1CCSC1COc1ccccc1OC (single isomer, unassigned) [S(-) enantiomer]
antitussive activity of enantiomers [2]: equivalent antitussive activity

COc1ccc2c3c1O[C@H]1[C@@H](O)C=C[C@H]4[C@@H](C2)N(C)CC[C@@]341 [Codeine]
addiction [4]: potentially causing addiction
